Laboratory results taken from patent US11945813B2, “5-substituted 4-amino-1H-benzo[c][1,2,6]thiadiazine 2,2-dioxides and formulations and uses thereof” (Firmenich Incorporated, priority 2018, dated 2024).

Molecular target: T1, T1R2/T1R3 taste receptor (Homo sapiens, UniProt Q8TE23)
T1 sequence (Q8TE23 20-839): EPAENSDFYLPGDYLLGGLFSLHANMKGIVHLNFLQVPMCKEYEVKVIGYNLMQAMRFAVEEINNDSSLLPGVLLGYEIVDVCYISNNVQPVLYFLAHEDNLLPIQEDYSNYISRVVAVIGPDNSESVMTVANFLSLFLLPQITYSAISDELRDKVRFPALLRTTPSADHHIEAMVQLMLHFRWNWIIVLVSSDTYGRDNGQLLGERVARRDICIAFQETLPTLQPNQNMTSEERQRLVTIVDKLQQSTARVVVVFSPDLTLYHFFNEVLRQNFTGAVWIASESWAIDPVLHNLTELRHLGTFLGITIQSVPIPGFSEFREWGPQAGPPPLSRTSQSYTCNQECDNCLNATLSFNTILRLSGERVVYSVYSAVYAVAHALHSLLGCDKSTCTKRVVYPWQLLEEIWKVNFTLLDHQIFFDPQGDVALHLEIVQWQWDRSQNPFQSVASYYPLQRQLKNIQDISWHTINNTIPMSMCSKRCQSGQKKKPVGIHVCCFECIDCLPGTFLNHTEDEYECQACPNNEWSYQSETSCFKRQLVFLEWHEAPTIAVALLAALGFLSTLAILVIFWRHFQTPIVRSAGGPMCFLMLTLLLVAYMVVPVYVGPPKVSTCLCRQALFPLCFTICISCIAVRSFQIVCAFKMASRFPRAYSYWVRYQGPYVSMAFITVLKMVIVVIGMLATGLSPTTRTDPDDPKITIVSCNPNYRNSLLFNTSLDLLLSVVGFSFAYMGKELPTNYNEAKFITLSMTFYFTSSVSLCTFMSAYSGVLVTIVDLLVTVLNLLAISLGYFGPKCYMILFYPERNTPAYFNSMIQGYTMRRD
T1 sequence (Q7RTX0 21-852 partner): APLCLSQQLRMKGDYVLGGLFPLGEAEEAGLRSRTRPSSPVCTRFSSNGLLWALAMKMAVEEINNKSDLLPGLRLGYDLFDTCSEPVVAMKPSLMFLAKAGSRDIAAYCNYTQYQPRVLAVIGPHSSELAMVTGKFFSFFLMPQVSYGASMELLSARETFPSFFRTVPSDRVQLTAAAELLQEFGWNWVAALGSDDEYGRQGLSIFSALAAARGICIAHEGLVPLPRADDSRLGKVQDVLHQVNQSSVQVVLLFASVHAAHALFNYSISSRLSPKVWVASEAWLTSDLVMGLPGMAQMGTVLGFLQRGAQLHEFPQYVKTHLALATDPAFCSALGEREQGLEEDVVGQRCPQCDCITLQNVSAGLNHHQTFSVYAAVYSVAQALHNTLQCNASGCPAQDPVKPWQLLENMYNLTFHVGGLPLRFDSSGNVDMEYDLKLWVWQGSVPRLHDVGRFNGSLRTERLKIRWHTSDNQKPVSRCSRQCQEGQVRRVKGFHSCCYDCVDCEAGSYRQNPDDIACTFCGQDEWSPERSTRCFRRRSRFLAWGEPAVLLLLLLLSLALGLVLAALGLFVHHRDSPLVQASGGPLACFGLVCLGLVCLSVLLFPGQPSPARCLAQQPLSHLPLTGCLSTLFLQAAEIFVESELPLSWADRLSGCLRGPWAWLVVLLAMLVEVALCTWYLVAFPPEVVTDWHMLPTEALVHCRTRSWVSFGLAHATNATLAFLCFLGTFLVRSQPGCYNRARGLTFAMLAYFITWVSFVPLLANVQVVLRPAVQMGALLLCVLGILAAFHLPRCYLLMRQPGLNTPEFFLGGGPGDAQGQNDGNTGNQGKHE
Test: Receptor-based assay: sweetener EC50 alone and with test compound (enhancement ratio)
Type: cell-based
Conditions: for Fructose Enhancement EC50 Ratio: sweetener fructose; for Sucralose Enhancement EC50 Ratio: sweetener sucralose; for Sucrose Enhancement EC50 Ratio: sweetener sucrose
Experimental: Potencies (EC50 values) for the sweeteners sucrose, sucralose, and fructose were measured against the T1R2/T1R3 taste receptor. EC50 was determined using the sweetener alone and in the presence of 3 μM, 10 μM, or 50 μM of test compound. EC50 ratios were calculated by the ratio of potency with and without the test compound. An “A” value indicates an enhancement ratio of greater than 20. A “B” value indicates an enhancement ratio from 10 to 20. A “C” value indicates an enhancement ratio greater than 1 and less than 10.

Row | SMILES | Fructose Enhancement EC50 Ratio (10 μM test compound) | Fructose Enhancement EC50 Ratio (50 μM test compound) | Sucralose Enhancement EC50 Ratio (10 μM test compound) | Sucralose Enhancement EC50 Ratio (50 μM test compound) | Sucrose Enhancement EC50 Ratio (3 μM test compound) | Sucrose Enhancement EC50 Ratio (10 μM test compound) | Sucrose Enhancement EC50 Ratio (50 μM test compound)
1 | CCCNc1nccc(NC(C)(C)COc2cccc3c2C(N)=NS(=O)(=O)N3)n1 [Compound 208] | C (A “C” value indicates an enhancement ratio greater than 1 and less than 10) | C (A “C” value indicates an enhancement ratio greater than 1 and less than 10) | A (An “A” value indicates an enhancement ratio of greater than 20) | A (An “A” value indicates an enhancement ratio of greater than 20) | C (A “C” value indicates an enhancement ratio greater than 1 and less than 10) | C (A “C” value indicates an enhancement ratio greater than 1 and less than 10) | C (A “C” value indicates an enhancement ratio greater than 1 and less than 10)
2 | Cc1cc(C)nc(N2CCC[C@H](COc3cccc4c3C(N)=NS(=O)(=O)N4)C2)n1 [Compound 300, (S)-4-amino-5-((1-(4,6-dimethylpyrimidin-2-yl)piperidin-3-yl)methoxy)-1H-benzo[c][1,2,6]thiadiazine 2,2-dioxide] | – | – | A (An “A” value indicates an enhancement ratio of greater than 20) | A (An “A” value indicates an enhancement ratio of greater than 20) | C (A “C” value indicates an enhancement ratio greater than 1 and less than 10) | C (A “C” value indicates an enhancement ratio greater than 1 and less than 10) | C (A “C” value indicates an enhancement ratio greater than 1 and less than 10)
3 | NC1=NS(=O)(=O)Nc2cccc(OC[C@H]3CCCN(c4cccc(C(=O)O)n4)C3)c21 [Compound 301, (S)-6-(3-(((4-amino-2,2-dioxido-1H-benzo[c][1,2,6]thiadiazin-5-yl)oxy)methyl)piperidin-1-yl)picolinic acid] | – | – | A (An “A” value indicates an enhancement ratio of greater than 20) | A (An “A” value indicates an enhancement ratio of greater than 20) | C (A “C” value indicates an enhancement ratio greater than 1 and less than 10) | C (A “C” value indicates an enhancement ratio greater than 1 and less than 10) | C (A “C” value indicates an enhancement ratio greater than 1 and less than 10)
4 | NC1=NS(=O)(=O)Nc2cccc(OC[C@H]3CCCN(c4ccc(C(=O)O)cn4)C3)c21 [Compound 302] | C (A “C” value indicates an enhancement ratio greater than 1 and less than 10) | C (A “C” value indicates an enhancement ratio greater than 1 and less than 10) | A (An “A” value indicates an enhancement ratio of greater than 20) | A (An “A” value indicates an enhancement ratio of greater than 20) | C (A “C” value indicates an enhancement ratio greater than 1 and less than 10) | C (A “C” value indicates an enhancement ratio greater than 1 and less than 10) | C (A “C” value indicates an enhancement ratio greater than 1 and less than 10)
5 | NC1=NS(=O)(=O)Nc2cccc(OC[C@H]3CCCN(c4cc(C(=O)O)ccn4)C3)c21 [Compound 303] | – | C (A “C” value indicates an enhancement ratio greater than 1 and less than 10) | C (A “C” value indicates an enhancement ratio greater than 1 and less than 10) | A (An “A” value indicates an enhancement ratio of greater than 20) | C (A “C” value indicates an enhancement ratio greater than 1 and less than 10) | C (A “C” value indicates an enhancement ratio greater than 1 and less than 10) | C (A “C” value indicates an enhancement ratio greater than 1 and less than 10)
6 | Cc1cnc(N2CCC[C@H](COc3cccc4c3C(N)=NS(=O)(=O)N4)C2)nc1 [Compound 304] | C (A “C” value indicates an enhancement ratio greater than 1 and less than 10) | C (A “C” value indicates an enhancement ratio greater than 1 and less than 10) | A (An “A” value indicates an enhancement ratio of greater than 20) | A (An “A” value indicates an enhancement ratio of greater than 20) | C (A “C” value indicates an enhancement ratio greater than 1 and less than 10) | C (A “C” value indicates an enhancement ratio greater than 1 and less than 10) | C (A “C” value indicates an enhancement ratio greater than 1 and less than 10)
7 | NC1=NS(=O)(=O)Nc2cccc(OC[C@H]3CCCN(c4ncc(F)cn4)C3)c21 [Compound 305] | C (A “C” value indicates an enhancement ratio greater than 1 and less than 10) | C (A “C” value indicates an enhancement ratio greater than 1 and less than 10) | A (An “A” value indicates an enhancement ratio of greater than 20) | A (An “A” value indicates an enhancement ratio of greater than 20) | C (A “C” value indicates an enhancement ratio greater than 1 and less than 10) | C (A “C” value indicates an enhancement ratio greater than 1 and less than 10) | C (A “C” value indicates an enhancement ratio greater than 1 and less than 10)
8 | COc1cc(OC)nc(N2CCC[C@H](COc3cccc4c3C(N)=NS(=O)(=O)N4)C2)n1 [Compound 306] | C (A “C” value indicates an enhancement ratio greater than 1 and less than 10) | – | B (A “B” value indicates an enhancement ratio from 10 to 20) | B (A “B” value indicates an enhancement ratio from 10 to 20) | C (A “C” value indicates an enhancement ratio greater than 1 and less than 10) | C (A “C” value indicates an enhancement ratio greater than 1 and less than 10) | C (A “C” value indicates an enhancement ratio greater than 1 and less than 10)
9 | Cc1cc(C(=O)O)nc(N2CCC[C@H](COc3cccc4c3C(N)=NS(=O)(=O)N4)C2)n1 [Compound 307] | C (A “C” value indicates an enhancement ratio greater than 1 and less than 10) | C (A “C” value indicates an enhancement ratio greater than 1 and less than 10) | A (An “A” value indicates an enhancement ratio of greater than 20) | A (An “A” value indicates an enhancement ratio of greater than 20) | C (A “C” value indicates an enhancement ratio greater than 1 and less than 10) | C (A “C” value indicates an enhancement ratio greater than 1 and less than 10) | C (A “C” value indicates an enhancement ratio greater than 1 and less than 10)
